Data: publication PMC3305890, “Synthesis and pharmacological characterization of potent, selective, and orally bioavailable isoindoline class dipeptidyl peptidase IV inhibitors” (Organic and Medicinal Chemistry Letters, 2011)
Read-outs that look alike come from different tables or passages of the source. Blank lines part the entries; values can stand above or below the molecule they belong to.

Tests used:
human plasma DPP-IV = target: T1, human plasma DPP-IV (Homo sapiens, UniProt P27487); experiment: IC50 with respect to human plasma DPP-IV (separate experiments); type: biochemical; conditions: separate experiments (footnote a)
T1 construct: from tissue; host or cells: human plasma
T1 sequence (P27487 39-766 limits assumed): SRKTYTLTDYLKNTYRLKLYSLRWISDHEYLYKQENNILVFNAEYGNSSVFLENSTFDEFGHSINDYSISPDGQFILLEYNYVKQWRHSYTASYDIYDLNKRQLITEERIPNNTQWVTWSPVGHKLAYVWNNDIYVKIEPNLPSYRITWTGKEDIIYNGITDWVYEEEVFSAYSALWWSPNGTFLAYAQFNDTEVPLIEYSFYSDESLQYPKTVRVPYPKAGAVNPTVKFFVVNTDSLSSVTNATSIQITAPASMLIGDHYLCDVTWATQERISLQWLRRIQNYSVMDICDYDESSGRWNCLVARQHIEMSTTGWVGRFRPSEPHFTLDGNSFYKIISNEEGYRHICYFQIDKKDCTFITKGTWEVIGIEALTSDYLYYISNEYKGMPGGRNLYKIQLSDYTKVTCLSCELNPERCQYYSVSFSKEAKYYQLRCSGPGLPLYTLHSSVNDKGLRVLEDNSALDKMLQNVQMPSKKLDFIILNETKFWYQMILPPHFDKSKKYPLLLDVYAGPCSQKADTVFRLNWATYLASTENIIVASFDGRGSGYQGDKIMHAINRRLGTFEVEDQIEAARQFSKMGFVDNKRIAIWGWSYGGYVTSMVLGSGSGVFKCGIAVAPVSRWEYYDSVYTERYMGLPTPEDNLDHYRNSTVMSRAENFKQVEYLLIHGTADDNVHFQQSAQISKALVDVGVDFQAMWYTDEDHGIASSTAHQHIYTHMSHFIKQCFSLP
Description: Table 1 Inhibition of DPP-IV, -8 and -9 activity by 1,3-dihydroisoindoline derivatives 4, their metabolic clearance by rat and human and their enzyme-inducing (CYP1A, CYP2B, and CYP3A) capacity | column: IC50 (nM) / DPP-IV

[1] = Further PK studies: metabolite identification by LC-MS, in vivo conversion of 4b into 4l; conditions: rats, after dosing of 4b
Method: Therefore, further PK studies were conducted. A major metabolite was detected by LC-MS analysis and its structure was determined by comparison of the LC retention time and MS/MS fragmentation pattern with synthetic standards.

[2] = Metabolic stability in rat liver microsomes; type: in vitro ADME; conditions: 5 μM
Method: (§1) The incubation mixture containing 0.25 mg of rat or human liver microsomes was preincubated with an NADPH-generating system for 5 min at 37°C. The reaction was started by the addition of 5 μL of a DMSO solution containing the test compound (5 μM). At t = 0 and at two additional time points between 0 and 30 min, aliquots (100 μL) were removed and added to termination mixtures (CH3CN). Proteins were sedimented by centrifugation and an aliquot of the supernatant was analyzed by LC/MS/MS.
(§2) In determinations of the in vitrot1/2, the analyte/ISTD peak area ratio was converted to percentage of drug remaining by assigning a value of 100% to the peak area ratio at t = 0. The slope of the regression line fitted to the log (percentage remaining) versus incubation time relationship (-k) was used in the conversion of raw data to the in vitrot1/2 value. In vitro CLint was calculated using the following formula.
(§3) CLint=0.693/Invitro t1/2×mL incubation/mg microsomes×45 mg microsomes/mg liver×[…] (b.w.)

[3] = Metabolic stability in human liver microsomes; type: in vitro ADME; conditions: read-out: CL'int Human (converted)
Method: as §1, §2, §3

CYP3A = CYP3A enzyme induction in rat hepatocytes (testosterone 6β-hydroxylation); type: in vitro ADME; conditions: rat hepatocytes, 1, 10, 50 μM, 2 days
Method: Enzyme induction was evaluated as follows: Hepatocytes isolated from male SD rats were maintained in culture for 1 day before treatment with the test compound or P-450 inducers. The cells were treated with the test compound (1, 10, 50 μM), β-naphthoflavone (10 μM, CYP1A inducer), phenobarbital (50 μM, CYP2B inducer), dexamethasone (10 μM, CYP3A inducer), or vehicle (0.1% DMSO final volume; used as negative control) for 2 days.
Induction of CYP1A, CYP2B, and CYP3A enzymes was determined based on measurements of 7-ethoxyresorufin O-dealkylation, 7-pentoxyresorufin O-dealkylation, and testosterone 6β-hydroxylation, respectively. Assays were started by the addition of Krebs-Henseleit buffer containing 8 μM 7-ethoxyresorufin, 10 μM 7-pentoxyresorufin, or 250 μM testosterone at a volume of 100 μL per well. After incubation at 37°C for 30 min, aliquots were removed and analyzed by fluorometry (an excitation wavelength of 538 nm and an emission wavelength of 590 nm) or LC/MS/MS to determine the quantities of metabolites formed. Any test compound causing a dose-dependent change equal to or greater than 10% of the positive control (see formula below) was considered an enzyme inducer.
% positive control=(activity of test - compound treated cells - activity of negative control)/(activity of positive control - activity of negative control)×100

[4] = Pharmacokinetics (PK) in SD rats; type: in vivo, Sprague-Dawley (SD) rats; conditions: for AUC(0-t): read-out: AUC 0-9 h
Method: Sprague-Dawley (SD) rats were housed under standard conditions and allowed free access to water and a commercial diet. On the day before the experiment, rats were fasted overnight and for the first 12 h of the experiment. […] Blood samples were collected from the jugular vein of each animal with a heparinized syringe under diethyl ether anesthesia at serial time points for 24 h after drug administration. Plasma was obtained by centrifugation at 4°C and stored at -70°C until analysis. Protein precipitation was carried out by the addition of the internal standard solution (70% CH3CN with 0.2% acetic acid) to samples. The tubes underwent vigorous shaking and centrifugation for 5 min; then the supernatant was subjected to LC/MS/MS analysis. Peak areas were determined using Xcalibur® software (Thermo Electron Corporation, UK) and AUC values were calculated by the trapezoidal rule.

plasma DPP-IV = target: T2, plasma DPP-IV (Rattus norvegicus, UniProt P14740); experiment: Inhibition of rat plasma DPP-IV ex vivo during OGTT; type: in vivo, Wistar/ST rats; conditions: for inhibition at 1 mg/kg: 1 mg/kg oral
T2 construct: from tissue; host or cells: plasma of Wistar/ST rats
T2 sequence (P14740 37-767 limits assumed): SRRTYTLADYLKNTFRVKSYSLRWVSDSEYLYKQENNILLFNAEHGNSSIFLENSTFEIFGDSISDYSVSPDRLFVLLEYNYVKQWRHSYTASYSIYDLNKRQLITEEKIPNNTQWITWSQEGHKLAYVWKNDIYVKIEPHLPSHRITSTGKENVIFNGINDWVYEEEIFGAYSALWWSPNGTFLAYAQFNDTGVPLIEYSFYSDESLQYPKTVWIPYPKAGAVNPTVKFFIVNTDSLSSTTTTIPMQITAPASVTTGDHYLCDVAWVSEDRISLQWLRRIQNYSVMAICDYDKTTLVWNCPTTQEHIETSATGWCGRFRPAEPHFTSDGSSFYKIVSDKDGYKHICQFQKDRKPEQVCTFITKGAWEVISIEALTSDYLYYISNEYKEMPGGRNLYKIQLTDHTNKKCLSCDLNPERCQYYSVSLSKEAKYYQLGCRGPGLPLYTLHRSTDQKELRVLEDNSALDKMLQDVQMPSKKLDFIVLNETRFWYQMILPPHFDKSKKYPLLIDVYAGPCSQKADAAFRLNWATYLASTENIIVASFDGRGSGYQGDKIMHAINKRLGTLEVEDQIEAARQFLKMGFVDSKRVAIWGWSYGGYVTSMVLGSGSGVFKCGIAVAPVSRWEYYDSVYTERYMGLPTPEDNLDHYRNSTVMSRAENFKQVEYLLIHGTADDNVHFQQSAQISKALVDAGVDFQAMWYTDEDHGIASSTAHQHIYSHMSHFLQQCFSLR
Method: After 30 min (t = 0), oral glucose challenges (1 g/kg) were conducted and then plasma DPP-IV activities and blood glucose levels were monitored at various intervals over a 2 h period. […].
(§4) All procedures were approved by the Sanwa Kagaku Kenkyusho Institutional Animal Care and Use Committee. 7-week old Wistar/ST rats were housed under standard conditions and allowed free access to water and a commercial diet for at least 5 days. […] After an oral glucose challenge (5 mL/kg of an aqueous solution of 20% glucose), blood samples were collected from the tail vein of each animal into heparin-containing tubes at serial time points for 2 h. Plasma was prepared immediately, frozen, and stored at -20°C prior to analysis.
Plasma DPP-IV activity was determined as described above. A 20 μL plasma sample was mixed with 5 μL of reaction buffer (140 mM NaCl, and 10 mM KCl, 25 mM Tris-HCl, pH 7.4, 1% bovine serum albumin) and 10 μL of buffer containing 60 μM H-Gly-Pro-AMC. After incubation at room temperature for 30 min, the reaction was stopped by the addition of 20 μL of 25% aqueous acetic acid and fluorescence was measured using an excitation wavelength of 360 nm and an emission wavelength of 460 nm.

blood glucose = experiment: Oral glucose tolerance test (OGTT), blood glucose; type: in vivo; conditions: Wistar/ST rats, 1 mg/kg oral, glucose challenge 1 g/kg
Method: (§5) After 30 min (t = 0), oral glucose challenges (1 g/kg) were conducted and then plasma DPP-IV activities and blood glucose levels were monitored at various intervals over a 2 h period.
as §4
(§6) Plasma glucose and insulin were determined with a glucometer (Glutest Pro; SKK, Japan) and a rat insulin ELISA kit (Shibayagi, Japan), respectively, according to the manufacturer's instructions. Statistical analyses were performed using Microsoft Excel. Individual comparisons among more than two experimental groups were assessed using ANOVA, with Fisher's Least Significant Difference post hoc test. Differences were considered significant at P values < 0.05. Analysis of dose-response data was performed by Dunnett's test.

plasma insulin = experiment: Plasma insulin after glucose challenge in OGTT; type: in vivo; conditions: Wistar/ST rats, oral 4b, 10 min after glucose challenge
Method: as §5, §4, §6

[5] = Sprague-Dawley, rat, plasma, po 3 mg/kg
[6] = Sprague-Dawley, rat, plasma, po 10 mg/kg

IC50 (human plasma DPP-IV): 1.9 nM
in vivo conversion (of 4b into metabolite 4l) [1]: 60%
SMILES: CC(C)(CC(=O)N1Cc2ccc(CO)cc2C1)NCC(=O)N1CCC[C@H]1C#N [Compound 4l, (S)-1-(2-(4-(5-(Hydroxymethyl)isoindolin-2-yl)-2-methyl-4-oxobutan-2-ylamino)acetyl)pyrrolidine-2-carbonitrile]

CL'int Rat [2]: 2.3 L/h/kg
CLint scaled at 5 μM [3]: 1.67 mL/min/kg
AUC(0-t) ([4]; Sprague-Dawley, rat, plasma, iv 1 mg/kg): 39 ng·h/mL
clearance ([4]; Sprague-Dawley, rat, plasma, iv 1 mg/kg, read-out: CL p (converted)): 437 mL/min/kg
Vd ([4]; Sprague-Dawley, rat, plasma, iv 1 mg/kg, read-out: Vd ss): 8.28 L/kg
Cmax [4, 5]: 37 ng/mL
Tmax [4, 5]: 15 min
AUC(0-t) [4, 5]: 33 ng·h/mL
Cmax [4, 6]: 229 ng/mL
Tmax [4, 6]: 15 min
AUC(0-t) [4, 6]: 156 ng·h/mL
t 1/2α ([4]; iv 1 mg/kg, first t 1/2 column): 3.72 min
t 1/2α ([4]; iv 1 mg/kg, second t 1/2): 16.2 min
BA ([4]; po 3 mg/kg): 27.7%
t 1/2α ([4]; po 3 mg/kg, second t 1/2): 82.2 min
BA ([4]; po 10 mg/kg): 39.9%
t 1/2α ([4]; po 10 mg/kg, second t 1/2): 90 min
inhibition of DPP-IV estimated from the PK profiles (plasma DPP-IV; 3-10 mg/kg doses, for several hours, estimated from the PK profiles): > 50%
inhibition at 0.1 mg/kg (plasma DPP-IV; rat, Wistar/ST rats, 0.1 mg/kg oral): 30%
inhibition at 1 mg/kg (plasma DPP-IV; rat, Wistar/ST rats, over 2 h period after glucose challenge, read-out: inhibition of plasma DPP-IV activity maintained throughout the study): > 90%
inhibition at 1 mg/kg (plasma DPP-IV; rat, Wistar/ST rats, within 30 min post-dose, read-out: inhibition of plasma DPP-IV activity): 95%
SMILES: Cc1ccc2c(c1)CN(C(=O)CC(C)(C)NCC(=O)N1CCC[C@H]1C#N)C2 [Compound 4b, (S)-1-(2-(2-Methyl-4-(5-methylisoindolin-2-yl)-4-oxobutan-2-ylamino)acetyl)pyrrolidine-2-carbonitrile]
Enzyme induction (rat) CYP3A (CYP3A): - (Any test compound causing a dose-dependent change equal to or greater than 10% of the positive control (see formula below) was considered an enzyme inducer)
reduction of glucose levels in OGTT (blood glucose): 18%
insulin levels at 10 min post-challenge (plasma insulin): increased
